{"source": "patent US4839380A", "about": "“1-Thiocarbamoylmethylpyrrolidine-2-thione, medical compositions of, and anti-hypoxic and nootropic use thereof” (priority 1988, dated 1989)", "key": {"mice [1]": {"system": "mice", "assay": "Acute normobaric hypoxia: lifespan of mice", "type": "in vivo", "experimental": "(§1) The antihypoxic effect of the compound according to the present invention was studied in comparison with pyracetam on various experimental models of hypoxic states in experiments on mice and rats. The compound according to the present invention and pyracetam were administered intraperitoneally in the form of an aqueous emulsion prepared with Tween-80.\n(§2) Investigations were also carried out with a model of an acute normobaric hypoxia.\n(§3) An acute normobaric hypoxia was simulated in a flow-type barometric chamber at an ambient temperature of 17°-22° C. with absorption of carbon dioxide and water. A gas mixture ([…] and 3% of O2) was admitted into the barometric chamber at the rate of 10 1/min. The lifespan of test animals (mice, rats) in the chambers was recorded since the moment of the mixture admission into the chamber till the moment of perdition of the animals which was adjudicated by an agonal breathing against the background of convulsions. The modes of administration of the preparations, species of animals and analysis of the results of the experiments are similar to those described hereinbefore for the case of an acute hypobaric hypoxia. The experiments were carried out using 50 mice and 20 rats."}, "[2]": {"conditions": "prior art; cited from earlier work"}, "mice [3]": {"system": "mice", "assay": "Memory consolidation: conditioned reflex of passive avoidance in a two-chamber unit", "type": "in vivo, mice (nondescript male white)", "experimental": "The study of the effect on processes of consolidation (fixation) of memory was carried out on 400 nondescript male white mice with a mass of 18-20 g using the procedure of a conditioned reflex of passive avoidance in a two-chamber unit, one of the chambers being darkened. In the bottom of the dark chamber an electrode floor is mounted, to which an electric current (50-60 V) can be applied.\nDue to their biological specific features, mice prefer to stay in the dark chamber. At the end of the exposure lasting for 180 seconds of the residence of an animal in the dark chamber which, as a rule, actually takes place, an electric current is applied to the irritating device and a mouse is forced to leave its shelter.\nTherefore, after a single-time training a conditioned reflex of passive avoidance is elaborated in mice. The resproduction of the effect which is evaluated by the laten period time (in seconds) of the visit to the dark chamber (or by the time of residence in the light chamber) was effected after 24 hours.\nThe compound according to the present invention and pyracetam were administered in doses of 200-250 mg/kg (pyracetam also in the dose of 1,000 mg/kg) intraperitoneally right after elaboration of the conditioned reflex."}, "rats": {"system": "rats", "assay": "Acute normobaric hypoxia: lifespan of rats", "type": "in vivo", "experimental": "as §1, §2, §3"}, "mice [4]": {"system": "mice", "assay": "Lifespan of mice under acute hypoxic hypoxia with hypercapnia (sealed chamber)", "type": "in vivo, mice (nondescript white male)", "experimental": "as §1\nTests were carried out on a model of an acute hypoxic hypoxia with hypercapnia.\nThe tests were conducted using 540 nondescript while male mice with a mass of 20-22 g. Each mouse was separately placed into a sealed chamber (with the capacity of 250 ml) 60 minutes after administration of the compound according to the present invention in the doses of 50, 100, 250, 500 and 750 mg/kg. The control animals were issued with an isotonic solution of sodium chloride. The antihypoxic activity was assessed by the lifespan of the mice in the sealed chamber (in minutes)."}, "[5]": {"assay": "Learning speed, performing of conditional reflex and memory consolidation (overall)", "type": "in vivo, rats and mice", "conditions": "conditional reflex, memory consolidation, versus pyracetam", "experimental": "The compound according to the present invention was also tested for the effect produced thereby on processes of learning and memorizing.\nThe study of the compound according to the present invention for the speed of learning and performing the produced conditioned reflux was effected in experiments on rats using the method of electrodefensive conditioned reflexes of avoidance.\nIn experiments on mice the compound according to the present invention was tested for the effects produced thereby on processes of memory consolidation according to the results of investigation of the conditional response of passive avoidance."}, "mice [6]": {"system": "mice", "assay": "Toxicity and general effect", "type": "in vivo", "experimental": "The study of toxicity and a general effect of the compound according to the present invention was effected on mice with a mass of 18-20 g upon an intraperitoneal administration of the compound according to the present invention in doses of from 100 to 1.500 mg/kg."}, "[7]": {"assay": "Solubility and storage stability", "type": "physicochemical"}}}
{"compound": "NC(=O)CN1CCCC1=O", "note": "[Pyracetam, 1-carbamidomethylpyrrolidone-2, reference compound]", "values": [{"measurement": "lifespan at an acute normobaric hypoxia, mice", "setting": "mice [1]; mice, 250 mg/kg", "result": "3.73 ± 0.254", "unit": "min"}, {"measurement": "lifespan at an acute normobaric hypoxia, mice, % (control = 100%)", "setting": "mice [1]; mice, 250 mg/kg", "result": "87.7 ± 5.97", "unit": "%"}, {"measurement": "lifespan at an acute normobaric hypoxia, mice", "setting": "mice [1]; mice, 500 mg/kg", "result": "6.08 ± 0.744", "unit": "min"}, {"measurement": "lifespan at an acute normobaric hypoxia, mice, % (control = 100%)", "setting": "mice [1]; mice, 500 mg/kg", "result": "143.1 ± 17.5", "unit": "%"}, {"measurement": "stimulative effect on the mechanisms of memory consolidation and performance of conditioned reflexes", "setting": "[2]", "result": "absence of a pronounced stimulative effect"}, {"measurement": "extension of the latent period of the conditioned reflex of passive avoidance (control = 100%)", "setting": "mice [3]; 1.000 mg/kg", "result": 33.7, "unit": "%"}, {"measurement": "effect on the latent period of passive avoidance", "setting": "mice [3]; doses lower than 1.000 mg/kg", "result": "inactive"}, {"measurement": "effect of extension of the latent period of the reflex of passive avoidance", "setting": "mice [3]; only in the dose of 1.000 mg/kg, pyracetam, 1,000 mg/kg", "result": "the same effect"}, {"measurement": "lifespan at an acute normobaric hypoxia, rats", "setting": "rats; 250 mg/kg", "result": "inactive"}, {"measurement": "lifespan at an acute normobaric hypoxia, rats", "setting": "rats; 500 mg/kg", "result": "17.3 ± 5.25", "unit": "min"}, {"measurement": "lifespan at an acute normobaric hypoxia, rats, % (control = 100%)", "setting": "rats; 500 mg/kg", "result": "93.0 ± 28.2", "unit": "%"}, {"measurement": "lifespan of mice under acute hypoxic hypoxia", "setting": "mice [4]; 100 mg/kg i.p.", "result": 27.4, "unit": "min"}, {"measurement": "lifespan of mice under acute hypoxic hypoxia", "setting": "mice [4]; 250 mg/kg i.p.", "result": 33.5, "unit": "min"}, {"measurement": "lifespan of mice under acute hypoxic hypoxia", "setting": "mice [4]; 500 mg/kg i.p.", "result": 39.6, "unit": "min"}, {"measurement": "lifespan of mice under acute hypoxic hypoxia", "setting": "mice [4]; 750 mg/kg i.p.", "result": 34.4, "unit": "min"}, {"measurement": "extension of mice lifespan as compared to the control", "setting": "mice [4]; 2,000 mg/kg", "result": 60, "unit": "%"}, {"measurement": "lifespan of mice under acute hypoxic hypoxia", "setting": "mice [4]; 2000 mg/kg i.p.", "result": 45.0, "unit": "min"}, {"measurement": "lifespan of mice under acute hypoxic hypoxia", "setting": "mice [4]; 2000 mg/kg i.p., listed as pyracetam", "result": 45, "unit": "min"}, {"measurement": "lifespan of mice under acute hypoxic hypoxia", "setting": "mice [4]; column 8, dose printed \"100\" mg/kg (between 750 and 2000), i.p.", "result": 41.4, "unit": "min"}]}
{"compound": "NC(=S)CN1CCCC1=S", "note": "[Compound of the present invention, 1-thiocarbamylmethylpyrrolidine-2-thione]", "values": [{"measurement": "effective doses smaller than those of pyracetam", "setting": "[5]", "result": "4-5 times"}, {"measurement": "toxicity classification", "setting": "mice [6]; based on LD50", "result": "low-toxic"}, {"measurement": "dose with which suppression of a general state of the animals starts", "setting": "mice [6]; mice, intraperitoneal", "result": 250, "unit": "mg/kg"}, {"measurement": "increase of resistance of mice to acute normobaric hypoxia as compared to the control", "setting": "mice [1]; mice, 250 mg/kg", "result": 4.5, "unit": "times"}, {"measurement": "lifespan at an acute normobaric hypoxia, mice", "setting": "mice [1]; mice, 250 mg/kg", "result": "22.21 ± 3.23", "unit": "min"}, {"measurement": "lifespan at an acute normobaric hypoxia, mice, % (control = 100%)", "setting": "mice [1]; mice, 250 mg/kg", "result": "469.5 ± 68.3", "unit": "%"}, {"measurement": "superiority to pyracetam in effectiveness, mice", "setting": "mice [1]; mice, versus pyracetam at 500 mg/kg", "result": 3.2, "unit": "times"}, {"measurement": "superiority to pyracetam in effectiveness", "setting": "mice [1]; versus pyracetam at 250 mg/kg", "result": 5, "unit": "times"}, {"measurement": "solubility in N,N-dimethylformamide", "setting": "[7]; N,N-dimethylformamide", "result": "soluble"}, {"measurement": "solubility in ether, hexane", "setting": "[7]; ether, hexane", "result": "insoluble"}, {"measurement": "storage stability", "setting": "[7]; storage", "result": "stable in storage"}, {"measurement": "effective dose lower than that of pyracetam", "setting": "mice [3]; 200 mg/kg versus pyracetam 1.000 mg/kg", "result": 5, "unit": "times"}, {"measurement": "minimal effective dose", "setting": "mice [3]; Mus musculus, ip, 24 h, read-out: effective dose (memory consolidation)", "result": 200, "unit": "mg/kg"}, {"measurement": "duration of the latent period of the reflex of passive avoidance", "setting": "mice [3]; ip, 200 mg/kg, 24 h", "result": "136.2 ± 6.6", "unit": "s"}, {"measurement": "efficiency of the positive influence upon dose increasing", "setting": "mice [3]; up to 500 mg/kg", "result": "does not grow"}, {"measurement": "increase of resistance of rats to acute normobaric hypoxia as compared to the control", "setting": "rats; 250 mg/kg", "result": 1.5, "unit": "times"}, {"measurement": "lifespan at an acute normobaric hypoxia, rats", "setting": "rats; 250 mg/kg", "result": "27.38 ± 7.07", "unit": "min"}, {"measurement": "lifespan at an acute normobaric hypoxia, rats, % (control = 100%)", "setting": "rats; 250 mg/kg", "result": "147.2 ± 38.0", "unit": "%"}, {"measurement": "superiority to pyracetam in effectiveness, rats", "setting": "rats; versus pyracetam at 500 mg/kg", "result": 1.5, "unit": "times"}, {"measurement": "lifespan of mice under acute hypoxic hypoxia", "setting": "mice [4]; 100 mg/kg i.p.", "result": 56.3, "unit": "min"}, {"measurement": "lifespan of mice under acute hypoxic hypoxia", "setting": "mice [4]; 250 mg/kg i.p.", "result": 60.3, "unit": "min"}, {"measurement": "lifespan of mice under acute hypoxic hypoxia", "setting": "mice [4]; 500 mg/kg i.p.", "result": 95.2, "unit": "min"}, {"measurement": "extension of mice lifespan as compared to the control", "setting": "mice [4]; 750 mg/kg", "result": 4, "unit": "times"}, {"measurement": "increase of mice lifespan as compared to the control", "setting": "mice [4]; 750 mg/kg", "result": 324.5, "unit": "%"}, {"measurement": "lifespan of mice under acute hypoxic hypoxia", "setting": "mice [4]; 750 mg/kg i.p.", "result": 119.2, "unit": "min"}, {"measurement": "minimal effective dose", "setting": "mice [4]; Mus musculus, ip, read-out: dose beginning with which resistance to acute oxygen insufficiency is enhanced and lifespan extended", "result": 100, "unit": "mg/kg"}]}
